Reference: patent US12616674B2, “Anti-fibrotic NEU3 inhibitor compounds and methods of use” (The Texas A&M University System, priority 2019, dated 2026)
Read-outs that look alike come from different tables or passages of the source.

Legend:
[1] = biological target: T1, recombinant human sialidase NEU3 (Homo sapiens, UniProt Q9UQ49); experiment: NEU3-catalyzed L-TGF-β1 activation (TGF-β1 release/concentration assay, active TGF-β1 ELISA); assay type: biochemical; settings: recombinant human NEU3, L-TGF-β1, PBS pH 6.9, 2 hours 37° C.
T1 construct: purchased Origene TP316537
T1 sequence (Q9UQ49 1-428): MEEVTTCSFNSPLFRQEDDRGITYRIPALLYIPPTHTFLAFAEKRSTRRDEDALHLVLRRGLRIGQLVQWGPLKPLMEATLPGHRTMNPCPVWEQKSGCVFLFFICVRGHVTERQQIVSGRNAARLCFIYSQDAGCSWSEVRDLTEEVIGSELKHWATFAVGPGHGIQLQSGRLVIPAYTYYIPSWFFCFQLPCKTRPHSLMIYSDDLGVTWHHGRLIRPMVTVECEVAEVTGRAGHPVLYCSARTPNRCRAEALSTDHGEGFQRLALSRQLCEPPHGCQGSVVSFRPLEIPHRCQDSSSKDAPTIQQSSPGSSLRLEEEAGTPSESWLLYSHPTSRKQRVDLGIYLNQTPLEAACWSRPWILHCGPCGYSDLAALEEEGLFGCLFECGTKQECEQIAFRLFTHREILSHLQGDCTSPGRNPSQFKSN
Description: To determine if NEU3 can cause latent transforming growth factor-β1 (L-TGF-β1) to release active TGF-β1, 200 ng/ml recombinant human L-TGF-β1 (299-LT/CF, R&D Systems) was incubated with varying concentrations of recombinant human NEU3 (TP316537, Origene) in a total volume of 100 μl of PBS pH 6.9 in a 96-well microplate (651261, Greiner Bio-one, Monroe, NC). The microplates were covered with aluminum foil and incubated at 37° C. for 2 hours. Following incubation, the reaction mixtures were assayed using a TGF-β1 ELISA kit (DY240, R&D Systems) following the manufacturer's protocol with the exception that the reaction mixtures were not processed for acid treatment, so as to measure only active TGF-β1 and not total TGF-β1. The absorbance was read with a SynergyMX plate reader (BioTek, Winooski, VT).
To determine the ability of compounds 1-31 to inhibit human recombinant NEU3 in-vitro, compounds were dissolved in 5 ml water to 20 mM in 15 ml tubes (89039-664, VWR, Radnor, PA), with the exception that 4-hydroxypyridine-2-carboxylic acid, nicotinic acid, and 4-aminopicolinic acid were dissolved in 50 μl DMSO to 2 M, and this was then added to 4.95 ml of water to make a 20 mM stock, and O-(tetrahydro-2H-pyran-2yl) hydroxylamine and salicylic acid were dissolved in 50 μl methanol to 2 M, and this was then added to 4.95 ml of water to make a 20 mM stock. All stocks were stored at 4° C. and used within 2 weeks of preparation. A 10-fold dilution series of the compounds starting at 2 mM were made in PBS pH 6.9 in 1.7 ml clear microtubes (22-281, Genesee Scientific). 100 μl of diluted compound was added to the well of a 96 well plate and then 50 μl of 400 ng/ml recombinant human sialidase NEU3 (TP316537, Origene) in PBS pH 6.9 was added to each well (50 μl PBS pH 6.9 for the control), and the plate was incubated for 30 minutes at 37° C. 50 μl of 800 ng/ml L-TGF-β1 (299-LT/CF, R&D Systems) in PBS pH 6.9 was then added to the well. The plate was covered with aluminum foil and incubated for 2 hours at 37° C., and released active TGF-β1 was assayed as described above.

[2] = system: NEU3-induced IL-6 production by human PBMC; experiment: NEU3-induced extracellular IL-6 accumulation by human PBMC (IL-6 concentration assay); assay type: cell-based; settings: NEU3, serum-free medium, 48 hours
Description: Human peripheral blood was collected from healthy volunteers who gave written consent and with specific approval from the Texas A&M University human subjects review board. Peripheral blood mononuclear cells (PBMC) were isolated from the blood using Ficoll-Paque density gradient centrifugation (95021-205, GE Healthcare, Cincinnati, OH) following the manufacture's protocol. PBMC were cultured at […] in 96-well flat bottom tissue culture plates (type 62406-081; […] Louis, MO)) in a final volume of 200 μl per well. […] The sialidases were diluted in 100 μl of the same medium the cells were in, and added to 100 μl of cells at 1×10^5 cells/ml to make the total volume in a well 200 μl with 1×10^4 cells/well. The cells were then incubated at 37° C. in a humidified incubator with 5% CO2. The culture supernatants were collected after two or five days and assayed using an IL-6 ELISA kit (430501, Biolegend, San Diego, CA) following the manufacturer's protocol, reading absorbance with a SynergyMX plate reader (BioTek, Winooski, VT). Statistics were analyzed using Prism software (Graphpad, La Jolla, CA). At least three different donors were used for each assay. […] IL-6 in the culture supernatant was then assayed as described above. At least three different donors were used for each assay.

[3] = read-out: IC50, inhibits human NEU3 in the TGF-β1 concentration (release) assay
[4] = read-out: IC50, inhibits human NEU3 in the TGF-β1 concentration assay

SMILES | IC50 [1, 3] | IC50 [2] | IC50 [1, 4]
O=C(O)c1ccc[nH]1 [Compound 30, pyrrole-2-carboxylic acid] | 164000 nM | 9500 nM | –
Cc1ccnc(C(=O)O)c1 [Compound 22, 4-methylpicolinic acid] | 130 nM | 4700 nM | –
O=C(O)[C@H]1CCCN1 [Compound 29, D-proline] | – | 4200 nM | 63 nM
Nc1ccc(C(=O)O)nc1 [Compound 18, 5-aminopyridine-2-carboxylic acid] | – | 140 nM | 40 nM
O=C(O)c1cc(O)ccn1 [Compound 2, 4-hydroxypyridine-2-carboxylic acid] | – | > 300000 nM | –
O=C(O)[C@@H]1CCCCN1 [Compound 13, L-pipecolinic acid] | – | 7900 nM | 0.49 nM
O=C(O)c1ccc([N+](=O)[O-])cn1 [Compound 8, 5-nitro picolinic acid] | – | 79 nM | 43 nM
NC(=O)c1ccccn1 [Compound 10, picolinamide] | – | > 100000 nM | 22 nM
O=C(O)c1cc(=O)cc[nH]1 [Compound 24, 4-oxo-1,4-dihydropyridine-2-carboxylic acid] | – | 8500 nM | –
NC1CCNC(C(=O)O)C1 (stereo not shown) [Compound 25, 2-piperidinecarboxylic acid, 4-amino] | – | 0.13 nM | 2 nM
O=C(O)c1cccnc1 [Compound 14, nicotinic acid] | – | 1500 nM | 0.011 nM
O=C(O)C1CCCCCN1 (stereo not shown) [Compound 31, azepane-2-carboxylic acid] | – | 35 nM | 2.4 nM
Nc1ccncc1C(=O)O [Compound 23, 4-aminonicotinic acid] | – | 10000 nM | 5 nM
COc1ccnc(C(=O)O)c1 [Compound 9, 4-methoxy picolinic acid] | – | > 100000 nM | 3.2 nM
CC(=O)Nc1ccc(C(=O)O)nc1 [Compound 3, 5-acetamidopyridine-2-carboxylic acid] | – | 6200 nM | 11 nM
Cc1cccc(C(=O)O)n1 [Compound 27, 6-methyl-2-pyridinecarboxylic acid] | – | 4.1 nM | < 0.01 nM
Nc1ccnc(C(=O)O)c1 [Compound 7, 4-amino picolinic acid] | – | > 100000 nM | 4 nM
O=C(O)c1ccccn1 [Compound 4, picolinic acid] | – | > 100000 nM | < 0.01 nM
O=[N+]([O-])c1ccccn1 [Compound 19, 2-Nitropyridine] | – | 20 nM | 40 nM
CN1CCCCC1C(=O)O (stereo not shown) [Compound 20, 1-methyl-2-piperidine carboxylic acid] | 500 nM | 30 nM | –
O=C(O)c1ccccc1O [Compound 15, salicylic acid] | 1800 nM | – | –
CCOC(=O)C1=C[C@@H](OC(CC)CC)[C@H](NC(C)=O)[C@@H](N)C1 [Compound 28, oseltamivir, reference compound] | – | 47000 nM | 570 nM
O=C(O)c1cccc(CO)n1 [Compound 17, 6-(hydroxymethyl) picolinic acid] | – | 38 nM | 0.05 nM
NOC1CCCCO1 (stereo not shown) [Compound 16, O-(tetrahydro-2H-pyran-2-yl)-hydroxylamine] | 2600 nM | – | –
O=C(O)C1=CCCCN1 [Compound 12, sodium 1,4,5,6-tetrahydropyridine-2-carboxylate] | 120000 nM | – | –
O=C(O)c1cc(C(F)(F)F)ccn1 [Compound 21, 4-(trifluoromethyl) picolinic acid] | – | 0.08 nM | –
